ChEMBL document CHEMBL5120759, “Synthesis, Biological Evaluation, and Molecular Docking Study of 3-Amino and 3-Hydroxy-seco A Derivatives of α-Amyrin and 3-Epilupeol as Inhibitors of COX-2 Activity and NF-kB Activation” (J Nat Prod, 2022)
Calls of active or inactive are those of the source. The calls are words filed in the database; no cut-off is given here.

What was measured:
[1] = test system: RAW264.7; test: Antiinflammatory activity against LPS-stimulated mouse RAW264.7 cells assessed as inhibition of IL-6 production at 8.8 to 35 uM prestimulated with LPS and 2 hrs later incubated with compound by […] assay; assay type: functional, cell-based; details: dose 8.8-35 µM
[2] = test system: RAW264.7; test: Antiinflammatory activity against LPS-stimulated mouse RAW264.7 cells assessed as inhibition of TNF-alpha production at 35 uM incubated for 2 hrs followed by LPS stimulation for 20 hrs by ELISA relative to control; assay type: functional; details: time 22 hrs
[3] = target: T1, COX-1 (Prostaglandin G/H synthase 1) (Ovis aries, UniProt P05979); test: Inhibition of ovine COX-1 at 17.5 uM using arachidonic acid as substrate by colorimetric analysis; assay type: single protein; details: sheep, ovine COX-1 enzyme, probe arachidonic acid
T1 sequence (P05979 whole entry): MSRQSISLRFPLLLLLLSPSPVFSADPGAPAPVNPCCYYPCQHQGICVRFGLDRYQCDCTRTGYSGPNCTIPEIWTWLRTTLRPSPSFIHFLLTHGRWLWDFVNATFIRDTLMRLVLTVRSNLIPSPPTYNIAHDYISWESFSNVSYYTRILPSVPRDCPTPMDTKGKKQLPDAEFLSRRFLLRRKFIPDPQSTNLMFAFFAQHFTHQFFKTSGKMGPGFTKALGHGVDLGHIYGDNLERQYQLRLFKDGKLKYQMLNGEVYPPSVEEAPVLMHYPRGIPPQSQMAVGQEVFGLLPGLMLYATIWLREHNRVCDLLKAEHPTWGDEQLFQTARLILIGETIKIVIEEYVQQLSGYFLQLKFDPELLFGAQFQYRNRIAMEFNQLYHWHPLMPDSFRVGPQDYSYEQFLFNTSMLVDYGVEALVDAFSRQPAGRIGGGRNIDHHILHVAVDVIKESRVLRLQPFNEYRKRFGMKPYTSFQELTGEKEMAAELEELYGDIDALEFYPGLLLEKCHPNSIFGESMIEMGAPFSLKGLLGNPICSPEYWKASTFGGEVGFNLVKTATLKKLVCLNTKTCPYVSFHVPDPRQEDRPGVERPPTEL

[4] = test system: RAW264.7; test: Antiinflammatory activity against LPS-stimulated mouse RAW264.7 cells assessed as inhibition of NO production at 8.8 to 70 uM prestimulated with LPS and 2 hrs later incubated with compound by Griess reagent based assay; assay type: functional, cell-based; details: dose 8.8-70 µM
[5] = test system: RAW264.7; test: Antiinflammatory activity against LPS-stimulated mouse RAW264.7 cells assessed as inhibition of TNF-alpha production at 8.8 to 35 uM prestimulated with LPS and 2 hrs later incubated with compound by […] assay; assay type: functional, cell-based; details: dose 8.8-35 µM
[6] = test system: RAW264.7; test: Antiinflammatory activity against LPS-stimulated mouse RAW264.7 cells assessed as inhibition of NO production at 4.4 to 35 uM prestimulated with LPS and 2 hrs later incubated with compound by Griess reagent based assay; assay type: functional, cell-based; details: dose 4.4-35 µM
[7] = Cytotoxicity against mouse RAW264.7 cells assessed as cell viability at 70 uM incubated for 24 hrs by MTS assay relative to control; assay type: toxicity, cell-based; details: read-out: Activity
[8] = test system: RAW264.7; test: Antiinflammatory activity against LPS-stimulated mouse RAW264.7 cells assessed as inhibition of NO production incubated for 2 hrs followed by LPS stimulation for 20 hrs by Griess reagent based assay; assay type: functional, cell-based
[9] = test system: Mus musculus; test: Anti-inflammatory activity against TPA-induced auricular edema CD-1 mouse model assessed as inhibition of ear edema at 1 mg per ear applied immediately after TPA application and measured after 4 hrs relative to control; assay type: functional
[10] = test system: RAW-Blue; test: Inhibition of NF-kappaB activation in LPS-stimulated mouse RAW-Blue cells at 35 uM preincubated for 2 hrs followed by LPS stimulation and measured after 20 hrs by QUANTI-Blue assay; assay type: cell-based; details: time 22.0 hrs
[11] = test system: RAW264.7; test: Antiinflammatory activity against LPS-stimulated mouse RAW264.7 cells assessed as inhibition of IL-6 production incubated for 2 hrs followed by LPS stimulation for 20 hrs by ELISA; assay type: functional, cell-based
[12] = target: T2, Prostaglandin G/H synthase 2 (Homo sapiens) (UniProt P35354); test: Inhibition of human COX-2 at 17.5 uM using arachidonic acid as substrate by colorimetric analysis
T2 sequence (whole entry): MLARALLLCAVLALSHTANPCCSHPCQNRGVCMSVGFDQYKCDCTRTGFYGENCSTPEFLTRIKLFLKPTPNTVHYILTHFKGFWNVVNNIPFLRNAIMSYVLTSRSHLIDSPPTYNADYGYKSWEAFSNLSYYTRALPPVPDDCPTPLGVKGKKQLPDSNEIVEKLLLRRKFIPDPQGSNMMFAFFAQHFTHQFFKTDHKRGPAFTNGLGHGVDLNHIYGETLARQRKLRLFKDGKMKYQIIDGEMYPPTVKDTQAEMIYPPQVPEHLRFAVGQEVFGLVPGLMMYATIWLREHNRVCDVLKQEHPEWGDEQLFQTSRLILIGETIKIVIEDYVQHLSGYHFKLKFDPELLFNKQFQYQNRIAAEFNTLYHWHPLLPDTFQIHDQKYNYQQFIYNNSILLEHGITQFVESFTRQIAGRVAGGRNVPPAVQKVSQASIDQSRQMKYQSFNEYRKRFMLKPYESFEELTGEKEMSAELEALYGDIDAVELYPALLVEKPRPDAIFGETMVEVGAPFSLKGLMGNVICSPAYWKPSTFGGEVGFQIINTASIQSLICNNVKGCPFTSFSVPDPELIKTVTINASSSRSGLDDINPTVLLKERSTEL

[13] = test system: RAW264.7; test: Antiinflammatory activity against LPS-stimulated mouse RAW264.7 cells assessed as inhibition of TNF-alpha production at 70 uM incubated for 2 hrs followed by LPS stimulation for 20 hrs by ELISA relative to control; assay type: functional; details: time 22 hrs
[14] = test system: RAW-Blue; test: Inhibition of NF-kappaB activation in LPS-stimulated mouse RAW-Blue cells at 70 uM preincubated for 2 hrs followed by LPS stimulation and measured after 20 hrs by QUANTI-Blue assay; assay type: cell-based; details: time 22.0 hrs
[15] = test system: RAW264.7; test: Cytotoxicity against mouse RAW264.7 cells assessed as reduction in cell viability at 8.8 to 70 uM incubated for 24 hrs by MTS assay; assay type: toxicity, cell-based; details: raw264.7, 24 h, dose 8.8-70 µM
[16] = test system: RAW264.7; test: Antiinflammatory activity against LPS-stimulated mouse RAW264.7 cells assessed as inhibition of IL-6 production at 17.5 to 70 uM prestimulated with LPS and 2 hrs later incubated with compound by […] assay; assay type: functional, cell-based; details: dose 17.5-70 µM
[17] = test system: RAW264.7; test: Antiinflammatory activity against LPS-stimulated mouse RAW264.7 cells assessed as inhibition of TNF-alpha production at 17.5 to 70 uM prestimulated with LPS and 2 hrs later incubated with compound by […] assay; assay type: functional, cell-based; details: dose 17.5-70 µM
[18] = test system: RAW264.7; test: Antiinflammatory activity against LPS-stimulated mouse RAW264.7 cells assessed as inhibition of IL-6 production at 70 uM incubated for 2 hrs followed by LPS stimulation for 20 hrs by ELISA relative to control; assay type: functional; details: time 22 hrs
[19] = Cytotoxicity against mouse RAW264.7 cells assessed as cell viability at 35 uM incubated for 24 hrs by MTS assay relative to control; assay type: toxicity, cell-based; details: read-out: Activity
[20] = test system: RAW-Blue; test: Inhibition of NF-kappaB activation in LPS-stimulated mouse RAW-Blue cells at 17.5 uM preincubated for 2 hrs followed by LPS stimulation and measured after 20 hrs by QUANTI-Blue assay; assay type: cell-based; details: time 22.0 hrs
[21] = test system: RAW264.7; test: Antiinflammatory activity against LPS-stimulated mouse RAW264.7 cells assessed as inhibition of TNF-alpha production at 84 uM incubated for 2 hrs followed by LPS stimulation for 20 hrs by ELISA relative to control; assay type: functional; details: time 22 hrs
[22] = test system: RAW264.7; test: Antiinflammatory activity against LPS-stimulated mouse RAW264.7 cells assessed as inhibition of IL-6 production at 84 uM incubated for 2 hrs followed by LPS stimulation for 20 hrs by ELISA relative to control; assay type: functional; details: time 22 hrs

Row | SMILES | inhibition at 17.5 µM [3] [%] | Activity [4] | viability at 24 h, 70 µM [7] [%] | IC50 [8] [µM] | inhibition (INH) [9] [%] | inhibition [12] [%] | inhibition at 70 µM [13] [%] | inhibition [14] [%] | Activity [15] | Activity [16] | Activity [17] | also measured
1 | C=C(C)[C@@H]1CC[C@]2(C)CC[C@]3(C)[C@H](CC[C@@H]4[C@@](C)(CCCN5C[C@H](O)C[C@H]5C(=O)OC)[C@H](C(=C)C)CC[C@]43C)[C@@H]12 | 7.2 | Active | 64.2 | 23.2 | 36.4 |  |  |  |  |  |  | Activity [1]: Active; inhibition at 35 µM [2]: 55.7%; Activity [5]: Active; Activity [6]: Active; inhibition [10]: 87.4%; IC50 [11]: 11.1 µM
2 | C=C(C)[C@@H]1CC[C@]2(C)[C@H](CC=C3[C@@H]4[C@@H](C)[C@H](C)CC[C@]4(C)CC[C@]32C)[C@@]1(C)CCCN1C[C@H](O)C[C@H]1C(=O)OC | 37.3 | Active |  | 42.9 | 25.2 | 61.8 | 70 | 96.2 | Non-Toxic | Active | Active | inhibition at 70 µM [18]: 89.1%
3 | C=C(C)[C@@H]1CC[C@]2(C)CC[C@]3(C)[C@H](CC[C@@H]4[C@@](C)(CCCN5CCOCC5)[C@H](C(=C)C)CC[C@]43C)[C@@H]12 |  |  |  |  | 11.1 | 49.2 |  |  | Non-Toxic |  |  | 
4 | C=C(C)[C@@H]1CC[C@]2(C)[C@H](CC=C3[C@@H]4[C@@H](C)[C@H](C)CC[C@]4(C)CC[C@]32C)[C@@]1(C)CCCO |  | Active |  | 58.9 | 9.5 | 66.3 | 68.5 | 22 | Non-Toxic | Active | Active | inhibition at 70 µM [18]: 40.2%
5 | C=C(C)[C@@H]1CC[C@]2(C)[C@H](CC=C3[C@@H]4[C@@H](C)[C@H](C)CC[C@]4(C)CC[C@]32C)[C@@]1(C)CCCN1CCOCC1 | 12.2 |  | 73.8 |  | 12.2 | 74.4 |  |  |  |  |  | 
6 | C[C@H]1[C@H](C)CC[C@]2(C(=O)O)CC[C@]3(C)C(=CC[C@@H]4[C@@]5(C)CC[C@H](O)C(C)(C)[C@@H]5CC[C@]43C)[C@H]12 [URSOLIC ACID] | 23.6 |  | 13.9 | 13.8 | 34.2 |  |  |  |  |  |  | viability at 24 h, 35 µM [19]: 30%; inhibition [20]: 52.2%
7 | C=C(C)[C@@H]1CC[C@]2(C)CC[C@]3(C)[C@H](CC[C@@H]4[C@@]5(C)CC[C@@H](O)C(C)(C)[C@@H]5CC[C@]43C)[C@H]12 |  |  |  |  | 66.4 |  |  |  |  |  |  | 
8 | COc1ccc2c(c1)c(CC(=O)O)c(C)n2C(=O)c1ccc(Cl)cc1 [INDOMETHACIN] |  |  |  | 40.7 | 91.4 |  |  |  |  |  |  | inhibition at 84 µM [21]: 54.6%; inhibition at 84 µM [22]: 44.2%
9 | C=C(C)[C@@H]1CC[C@]2(C)[C@H](CC=C3[C@@H]4[C@@H](C)[C@H](C)CC[C@]4(C)CC[C@]32C)[C@@]1(C)CCCNCC(=O)OC | 33.3 |  |  |  | 40.1 | 61.8 |  |  | Non-Toxic |  |  | 
10 | C=C(C)[C@@H]1CC[C@]2(C)CC[C@]3(C)[C@H](CC[C@@H]4[C@@](C)(CCCO)[C@H](C(=C)C)CC[C@]43C)[C@@H]12 | 14.8 | Active |  | 54.4 | 17.3 | 26 | 49.8 | 63.4 | Non-Toxic | Active | Active | IC50 [11]: 38 µM
